Results taken from patent publication EP1180991B1, “GAMBOGIC ACID DERIVATIVES AS ACTIVATORS OF CASPASES AND INDUCERS OF APOPTOSIS” (Cytovia, Inc., priority 1999, dated 2000).
Where two headings read alike, the source gives them in different places.

How the values were obtained:
[1] = tested on: PC-3; assay: Caspase cascade activation by known antineoplastic compounds (Example 92); conditions: for fold induction at 10 µM: Homo sapiens, PC-3, 24 h, read-out: ratio of the net RFU value for test compounds to that of control samples (caspase cascade activation)
Experimental: (§6) The samples were mixed by agitation and then incubated at 37° C for 24 h in a 5% CO2-95% humidity incubator. […] The samples were mixed by agitation and incubated for 3 h at room temperature. […] After the 3 h incubation, the samples were read for fluorescence as above (T = 3 h).
(§7) The Relative Fluorescence Unit values (RFU) were used to calculate the sample readings as follows: RFU(T=3⁢hr) −Control RFU(T=0) = Net RFU(T=3⁢hr) [formula]
(§8) The activity in caspase cascade activation was determined by the ratio of the net RFU value for test compounds to that of control samples.

[2] = tested on: T-47D; assay: as above; conditions: 24 h; for fold induction at 10 µM: Homo sapiens, T47D, read-out: ratio of the net RFU value for test compounds to that of control samples (caspase cascade activation)
Experimental: as §6, §7, §8

[3] = tested on: T-47D; assay: Caspase cascade activation assay (Example 90); type: cell-based, human; conditions: for caspase activity (Ratio): 0.16 to 10 µM final, net RFU ratio to control; for EC50: Homo sapiens, T47D
Experimental: (§1) Human breast cancer cell lines T-47D and ZR-75-1, human prostate cancer cell line PC-3, human leukemia cancer cell line HL-60 and human non-transformed fibroblast cell line MRC-5 cells were grown according to media component mixtures designated by The American Type Culture Collection + 10% FCS (Life Technologies, Inc.), in a 5% CO2 -95% humidity incubator at 37° C. T-47D, ZR-75-1 and PC-3 cells were maintained at a cell density between 30 and 80% confluency and for HL-60 at a cell density of 0.1 to 0.6 x 10^6 cells/ml. Cells were harvested at 600xg and resuspended at 0.65 x 10^6 cells/ml into appropriate media + 10% FCS. […] The samples were mixed by agitation and incubated at room temperature.
(§2) The EC50 (nM) was determined by a sigmoidal dose-response calculation (Prism 2.0, GraphPad Software Inc.). Caspase Activity and Potency

[4] = tested on: MRC-5; assay: Caspase cascade activation assay (Example 90); type: cell-based, human; conditions: for caspase activity (Ratio): MRC-5 non-transformed fibroblasts, 24 h incubation, 0.16 to 10 µM final, net RFU ratio to control
Experimental: as §1, §2

[5] = tested on: ZR-75-1; assay: Caspase cascade activation assay (Example 90); type: cell-based, human; conditions: for caspase activity (Ratio): ZR-75-1, 24 h incubation, 0.16 to 10 µM final, net RFU ratio to control
Experimental: as §1, §2

[6] = tested on: HL-60; assay: Caspase cascade activation assay (Example 90); type: cell-based, human; conditions: for caspase activity (Ratio): HL-60, 24 h incubation, 0.16 to 10 µM final, net RFU ratio to control
Experimental: as §1, §2

[7] = tested on: PC-3; assay: Caspase cascade activation assay (Example 90); type: cell-based, human; conditions: for caspase activity (Ratio): 0.16 to 10 µM final, net RFU ratio to control; for EC50: Homo sapiens
Experimental: as §1, §2

[8] = tested on: T-47D; assay: Inhibition of cell proliferation (GI50) and cell death (LC50), CellTiter 96 (Example 91); type: cell-based; conditions: Homo sapiens, T47D, 48 h
Experimental: (§3) T-47D, ZR-75-1, PC-3, human prostate cancer cell line DU-145, human non-small cell lung cancer cell line A-549, human small cell lung cancer cell line SHP-77, HL-60 and MRC-5 cells were grown and harvested as in Example 90. […] The samples were mixed by agitation and incubated at 37° C for 2-4 h in a 5% CO2-95% humidity incubator. […] This determines the possible background absorbance of the test compounds. No absorbance for gambogic acid or its analogs or derivatives was found at 490 nm. After the 2-4 h incubation, the samples were read for absorbance as above (ATest).
(§4) The samples were mixed by agitation and incubated at 37° C for 2-4 h in a 5% CO2-95% humidity incubator. Absorbance was read as above, (AT=0) defining absorbance for initial cell number used as baseline in GI50 determinations and (Amin) defining absorbance for media alone used as baseline in LC50 determinations.
(§5) GI50 (dose for50%inhibition of cell proliferation) 50 = 100 x [(ATest-AT = 0)/(Amax-AT = 0)] [formula] LC50 (dose for50%cell death) 50 = 100 x [(ATest-Amin)/(AT = 0-Amin)] [formula]

[9] = tested on: ZR-75-1; assay: as above; type: cell-based; conditions: Homo sapiens, ZR-75-1, 48 h
Experimental: as §3, §4, §5

[10] = tested on: DU-145; assay: as above; type: cell-based; conditions: Homo sapiens, DU-145, 48 h
Experimental: as §3, §4, §5

[11] = tested on: HL-60; assay: as above; type: cell-based; conditions: Homo sapiens, HL-60, 48 h
Experimental: as §3, §4, §5

[12] = tested on: A-549; assay: as above; type: cell-based; conditions: Homo sapiens, A549, 48 h
Experimental: as §3, §4, §5

[13] = tested on: SHP-77; assay: as above; type: cell-based; conditions: Homo sapiens, SHP77, 48 h
Experimental: as §3, §4, §5

[14] = tested on: PC-3; assay: as above; type: cell-based; conditions: Homo sapiens, PC-3, 48 h
Experimental: as §3, §4, §5

[15] = tested on: MRC-5; assay: as above; type: cell-based, human
Experimental: as §3, §4, §5

For `O=c1[nH]cc(F)c(=O)[nH]1` [5-fluorouracil], the fold induction at 10 µM [1] was 0.7 and the fold induction at 10 µM [2] was 0.8.

`CC[C@@]1(O)C(=O)OCc2c1cc1n(c2=O)Cc2cc3ccccc3nc2-1` [Camptothecin] gave a fold induction at 10 µM [1] of 0.6 and a fold induction at 10 µM [2] of 0.7.

`N.N.[Cl][Pt][Cl]` [Cisplatin] was tested, and the “ratio of the net RFU value for test compounds to that of control samples (caspase cascade activation)” value ([1]; PC-3, 10 µM final, 24 h, ratio around 1 = not an efficient activator) was 0.9 and the “ratio of the net RFU value for test compounds to that of control samples (caspase cascade activation)” value ([2]; T-47D, 10 µM final, ratio around 1 = not an efficient activator) was 1.1.

Compound `COc1cccc2c1C(=O)c1c(O)c3c(c(O)c1C2=O)C[C@@](O)(C(=O)CO)C[C@@H]3O[C@H]1C[C@H](N)[C@H](O)[C@H](C)O1` [Doxorubicin] has a fold induction at 10 µM [1] of 1.1 and a fold induction at 10 µM [2] of 1.3.

With `COc1cc([C@@H]2c3cc4c(cc3[C@@H](O[C@@H]3O[C@@H]5CO[C@@H](C)O[C@H]5[C@H](O)[C@H]3O)[C@H]3COC(=O)[C@H]23)OCO4)cc(OC)c1O` [Etoposide] the fold induction at 10 µM [1] was 0.8 and the fold induction at 10 µM [2] was 1.

With `CC(C)=CCC/C(C)=C/Cc1c(O)c(CC=C(C)C)c2c(c1O)C(=O)C1=CC3CC4C(C)(C)OC(C/C=C(/C)C(=O)O)(C3=O)C14O2` (centres unmarked) [Example 2, Gambogenic Acid] the “caspase activity (Ratio)” value ([3]; T-47D, 24 h incubation) was 16.9, the “caspase activity (Ratio)” value [4] was 22.4 and the “caspase activity (Ratio)” value [5] was 14.2. For the same compound, the “caspase activity (Ratio)” value [6] was 5.6 and the “caspase activity (Ratio)” value ([7]; PC-3, 24 h incubation) was 2.9.

For `CC(C)=CCC/C(C)=C/Cc1c(O)c(CC=C(C)C)c2c(c1O)C(=O)C1=CC3CC4C(C)(C)OC(C/C=C(/C)C=O)(C3=O)C14O2` (centres unmarked) [Example 3, Gambogenin], the EC50 ([3]; T-47D, caspase activation, 24 h incubation, read-out: EC50) was 1000 nM, the “caspase activity (Ratio)” value ([3]; T-47D, 24 h incubation) was 7.0 and the EC50 ([7]; PC-3, caspase activation, 24 h incubation, read-out: EC50) was 1700 nM. The “caspase activity (Ratio)” value ([7]; PC-3, 24 h incubation) was 2.9.

In the case of `COC(=O)/C(C)=C\CC12OC(C)(C)C3CC(C=C4C(=O)c5c(O)c6c(c(CC=C(C)C)c5OC431)OC(C)(CCC=C(C)C)C=C6)C2=O` (centres unmarked) [Example 4, Methyl Gambogate], the EC50 ([3]; 24 h) is reported as 484 nM, the “caspase activity (Ratio)” value ([3]; T-47D, 24 h incubation) is reported as 16.8 and the EC50 ([4]; Homo sapiens, MRC5, 24 h) is reported as 501 nM. The “caspase activity (Ratio)” value [4] was 27.8, the EC50 ([5]; Homo sapiens, ZR-75-1, 24 h) was 1640 nM and the “caspase activity (Ratio)” value [5] was 14.9. For the same compound, the “caspase activity (Ratio)” value [6] was 7.7, the EC50 ([6]; Homo sapiens, HL-60, 24 h) was 339 nM and the EC50 ([7]; PC-3, 24 h) was 1330 nM. The “caspase activity (Ratio)” value ([7]; PC-3, 24 h incubation) was 3.9, the GI50 [8] was 40 nM and the CC50 ([8]; read-out: LC50) was 50 nM. For the same compound, the GI50 [9] was 300 nM, the CC50 ([9]; read-out: LC50) was 500 nM and the GI50 [10] was 500 nM. The CC50 ([10]; read-out: LC50) was 500 nM, the GI50 [11] was 50 nM and the CC50 ([11]; read-out: LC50) was 500 nM. It also gave a GI50 [12] of 500 nM, a CC50 ([12]; read-out: LC50) of 2000 nM and a GI50 [13] of 500 nM. For the same compound, the CC50 ([13]; read-out: LC50) was 500 nM, the GI50 [14] was 500 nM and the CC50 ([14]; read-out: LC50) was 500 nM. For the same compound, the GI50 ([15]; Homo sapiens, MRC5, 48 h) was 200 nM and the CC50 ([15]; MRC-5 non-transformed fibroblasts, 48 h, dose for 50% cell death) was 500 nM.

In the case of `CC(C)=CCCC1(C)C=Cc2c(O)c3c(c(CC=C(C)C)c2O1)OC12C(=CC4CC1C(C)(C)OC2(C/C=C(/C)C(=O)N1CCCCC1)C4=O)C3=O` (centres unmarked) [Example 5, Gambogyl Piperidine], the “caspase activity (Ratio)” value ([3]; T-47D, 24 h incubation) is reported as 13.9, the “caspase activity (Ratio)” value [4] is reported as 12.6 and the “caspase activity (Ratio)” value [5] is reported as 14.3. The “caspase activity (Ratio)” value [6] was 5.2 and the “caspase activity (Ratio)” value ([7]; PC-3, 24 h incubation) was 2.7.
